Reference: patent US20140288010A1, “Compositions and Methods for Increasing Stem Cell Survival” (Georgia Regents Research Institute, Inc., priority 2013, published 2014)

Tests used:
[1] = system: Smad1/5/8-mediated BMP-2 signal transduction; assay: BMP receptor signaling by Western blot ((p)Erk1/2, (p)Smad1/5/8) in BMSCs; format: cell-based, mouse; conditions: for effect of pretreatment on SDF-1β potentiation of BMP-2 signal transduction: pretreatment 4 h, 600 μM AMD3100 or 50 μM U0126, before 300 ng/ml BMP-2
Description: FIGS. 17A and 17D are images of autoradiograms of western blots detecting pErk 1/2, Erk1/2, pSmad 1/5/8, Smad 1/5/8, and beta-actin (loading control) of isolated BMSC cells: Tet-Off-SDF-1β with and without Dox, BMP2, AMD3100, U0126, and combinations thereof (FIG. 17A) and Tet-Off-EV controls with and without Dox, BMP2, AMD3100, U0126, and combinations thereof (FIG. 17D). FIGS. 17B-C and 17E-F are bar graphs showing densitometry quantification of immunoreactive bands of FIGS. 17A and 17D as a ratio of pErk 1/2 to Erk1/2 (17B and 17E) and pSmad 1/5/8 to Smad 1/5/8 (17C and 17F).
(§1) BMP receptor signaling was assessed by Western blot. Serum-starved BMSCs were pretreated with 600 μM AMD3100, 50 μM U0126, or vehicle for 4 h prior to stimulation with 300 ng/ml BMP-2 for 30 min. Whole cell lysates were subjected to SDS-PAGE, electroblotted onto PVDF membranes, and probed for (p)Erk1/2 and (p)Smad1/5/8. Transwell migration assays were performed using conditioned media from genetically engineered BMSCs in lower chambers. Serum-starved Jurkat cells or BMSCs at 5.0-8.0×10^5 cells/ml in upper chambers were allowed to migrate across the 8-μm membranes for 4-8 h prior to quantifying total DNA with CyQuant GR dye at 485/535 nm. Apoptosis was induced with 1.0 mM H2O2 for 6 h. Cell death was quantified by trypan blue staining and Western blot analysis of cleaved caspase-3 and PARP. Autophagy was evaluated by Western blot for LC3-II.

[2] = biological target: CXCR4 (Mus musculus, UniProt P70658); conditions: BM supernatant of 3 or 18 month old mice normalized to 150 pg/ml SDF-1; both age groups
CXCR4, sequence (P70658 whole entry): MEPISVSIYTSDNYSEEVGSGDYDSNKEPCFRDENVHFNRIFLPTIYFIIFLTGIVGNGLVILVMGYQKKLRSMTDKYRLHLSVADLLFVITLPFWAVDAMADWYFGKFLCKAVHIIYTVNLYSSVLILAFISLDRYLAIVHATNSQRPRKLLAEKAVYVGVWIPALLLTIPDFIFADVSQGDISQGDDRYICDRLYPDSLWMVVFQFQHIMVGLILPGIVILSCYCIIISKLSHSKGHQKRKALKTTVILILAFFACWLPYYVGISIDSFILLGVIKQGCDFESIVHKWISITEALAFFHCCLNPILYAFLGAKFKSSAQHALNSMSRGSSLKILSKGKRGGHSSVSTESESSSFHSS
Procedure: BM supernatant from 3 or 18 month old mice were normalized by dilution with saline to yield 150 pg/ml of SDF-1 as determined by ELISA. The normalized BM supernatant was added to the lower chamber and the cells (either pretreated with AMD3100 or not) were permitted to migrate for 6 hours.

[3] = system: 18 month MSCs; assay: Transwell migration of 18 month MSCs; format: cell-based, mouse; conditions: 6 hours treatment
Description: The data shown are averages of quadruplicate wells. Bar graph represents RFU of migrated cells normalized to vehicle control group +/−SEM. *p<0.05 verse control group.
(§2) Low passage MSCs from 18 and 24 month old adult male C57BL/6 mice, procured from the GHSU Institute of Regenerative and Reparative Medicine Stem Cell Core (IRRM-SSC) were used. This age range was chosen based on associated changes in bone formation and mass in the comparatively aged mice (Zhang, et al., Journal of Bone and Mineral Research, 23:1118-1128 (2008)).
(§3) Recombinant active SDF-1β (i.e. full length amino acids 1-72; 100 ng/mL; Peprotech), Recombinant Mouse DPPIV/CD26 enzyme (0.01 μg; R&D) cleaved (Cl.) SDF-1β (aa3-72; 100 ng/mL) (Christopherson, et al., Blood, 101:4680-4686 (2003)), and AMD3100 (400 μM; R&D), an antagonist of SDF-1/CXCR4 axis (Liu, et al., Protein & Cell, 2:845-854 (2011)).
The migration efficiency of 18 month MSCs in response to SDF-1β, its cleaved form and AMD3100, as a positive control, was tested using a transwell migration system.

[4] = system: 18 month MSCs; assay: Osteogenic differentiation of MSCs, Alizarin red staining for calcium deposition; format: cell-based, mouse; conditions: for increase of Alizarin red staining for calcium compared to control cells: osteogenic differentiation of MSCs, terminal stages
Description: as §2
To determine the influence of modulating SDF-1 signaling in osteogenic differentiation of 18 month MSCs, the calcium deposition at the terminal stages of differentiation was measured. […] However, the SDF-1β stimulated calcium-staining was reduced by ˜8 fold (FIG. 9B) with co-treatment with C1.SDF-10.

[5] = system: LC3B, p62, pERK; assay: Western blot of LC3B, p62 and pERK in aged MSCs (autophagy and MAPK pathway); format: cell-based, mouse
Description: Low passage MSCs from 18 and 24 month old adult male C57BL/6 mice, procured from the GHSU Institute of Regenerative and Reparative Medicine Stem Cell Core (IRRM-SSC) were used.
Redistribution of LC3B from cytosol (18 kDa) to an autophagosome (16 kDa) is an indication of autophagy induction. P62, also known as sequestosome 1/SQSTM1, is a ubiquitously expressed protein, best characterized for selective autophagy, directly interacts with LC3B on the phagophore through the LC3-interacting region and then degraded.

[6] = system: SDF-1; assay: qRTPCR of SDF1β, CXCR4 and LC3B mRNA in MSCs after metformin treatment; format: cell-based, mouse; conditions: MSCs treated with metformin compared to controls
[7] = system: CXCR4-expressing Jurkat cells; assay: Transwell migration toward conditioned media from genetically engineered BMSCs, Jurkat cells; format: cell-based; conditions: 4-8 h, p<0.01
Procedure: as §1

[8] = system: BMSCs; assay: Transwell migration toward conditioned media from genetically engineered BMSCs, BMSCs; format: cell-based, mouse; conditions: 4-8 h, p<0.01
Procedure: as §1

[9] = system: AMPK-α1 and LC3B; assay: qRTPCR of AMPK-α1 and LC3B mRNA in MSCs; format: cell-based, mouse; conditions: 24 month MSCs; 100 ng/ml for 48 hours
Procedure: FIG. 7 is bar graph showing the results of an assay measuring the level of AMPK-alpha1 and LC3B mRNA in 24 month MSCs control cells and cells treated with 100 ng/ml of active SDF-1β for 48 hours. *p<0.05 compared to control group.
as §2, §3

[10] = system: BMSCs; assay: Cell viability after H2O2 treatment by trypan blue exclusion staining; format: cell-based, mouse; conditions: 1.0 mM H2O2 for 6 h; p<0.001
Description: BMSCs were transduced with retroviral Tet-Off expression vectors. The sequential protocol of retrovirus production, two-step infection, and selection to generate double-stable Tet-Off-SDF-1β BMSCs and Tet-Off-EV control BMSCs has been described previously (Herberg, et al., Tissue Eng Part A, 19:1-13 (2013)). In brief, 293GPG packaging cells (Ory, et al., Proc. Natl. Acad. Sci. USA, 93:11400-11406 (1996)) were transfected at passage 8 with retroviral Tet-Off expression vectors containing the SDF-1β coding sequence, or empty control (cat#632105) (Clontech Laboratories, Mountain View, Calif., USA). […]
The viability of BMSCs in response to H2O2 treatment was analyzed using standard trypan blue exclusion staining Cells were washed with PBS, lifted with trypsin/EDTA, and resuspended with normal growth medium. Following 1:5 dilution, BMSC suspensions were mixed with an equal volume of 0.4% trypan blue staining solution (cat#15250061) (Gibco, Invitrogen), and counted in 5 inner squares using a hemacytometer with cover slip (Hausser Scientific, Horsham, Pa., USA).
BMP receptor signaling was assessed by Western blot. […] Serum-starved Jurkat cells or BMSCs at 5.0-8.0×10^5 cells/ml in upper chambers were allowed to migrate across the 8-μm membranes for 4-8 h prior to quantifying total DNA with CyQuant GR dye at 485/535 nm. […] Autophagy was evaluated by Western blot for LC3-II.

Molecule: c1cc(CN2CCCNCCNCCCNCC2)ccc1CN1CCCNCCNCCCNCC1 [AMD3100]
- effect of pretreatment on SDF-1β potentiation of BMP-2 signal transduction [1]: abolished
- migration of MSCs toward BM supernatant after pretreatment of the cells [2]: blocked all migration
- migration of MSCs in transwell migration system relative to control [3]: suppressed

Molecule: c1cc(-c2cnn3cc(-c4ccc(OCCN5CCCCC5)cc4)cnc23)ccn1 [Compound C]
- osteogenic differentiation of MSCs (Alizarin red staining) [4]: significantly reduced

Molecule: N#CC(=C(/N)Sc1ccccc1N)/C(C#N)=C(\N)Sc1ccccc1N [U0126]
- effect of pretreatment on SDF-1β potentiation of BMP-2 signal transduction [1]: abolished

Molecule: CN(C)C(=N)N=C(N)N [metformin]
- LC3B and p62 levels on further incubation ([5]; 18 month and 24 month old MSCs, 24 or 48 h of metformin treatment): gradual reduction of LC3B and p62
- increase of Alizarin red staining for calcium compared to control cells [4]: ~20 fold
- expression of endogenous SDF-1 [6]: increase expression of endogenous SDF-1

Molecule: SDF-1β: Recombinant active SDF-1β, full length amino acids 1-72 (Peprotech); in Example 9 overexpressed in engineered BMSCs
- migratory response of CXCR4-expressing Jurkat cells [7]: significantly promoted
- migratory response of BMSCs [8]: significantly promoted
- AMPK-α1 and LC3B mRNA (qRTPCR) [9]: regulated autophagy at transcriptional level
- Smad1/5/8-mediated BMP-2 signal transduction via Erk1/2 phosphorylation ([1]; SDF-1β overexpressed in genetically engineered BMSCs, 300 ng/ml BMP-2 for 30 min, p<0.05): significantly potentiated
- LC3B and p62 levels on further incubation ([5]; 18 month MSCs, 24 or 48 h, 100 ng/mL): gradual disappearance of LC3B and p62
- effect on MAPK pathway and autophagy (LC3B distribution) ([5]; 18 month MSCs, six hours of treatment, 100 ng/mL): led to MAPK pathway activation and induced autophagy by distributing LC3B
- increase of Alizarin red staining for calcium compared to control cells [4]: ~20 fold
- apoptosis-resistance in genetically engineered BMSCs [10]: significant apoptosis-resistance
- migration of MSCs in transwell migration system relative to control [3]: strong migrating potential
